# Where a name gives a salt, the structure may show the parent alone.
# System: HT29 RAMS11 overexpressing cells
# Assay: High-throughput viability assay (resazurin), 119 FDA-approved anticancer drugs, RAMS11 overexpressing cells (Clone1, Clone2)
# Settings: 72 h, vs empty vector control
# [1] = OE1 (RAMS11 overexpression clone 1), 0.1 uM drug
# [2] = OE1 (RAMS11 overexpression clone 1), 1 uM drug
# [3] = OE1 (RAMS11 overexpression clone 1), 10 uM drug
# [4] = OE2 (RAMS11 overexpression clone 2), 0.1 uM drug
# [5] = OE2 (RAMS11 overexpression clone 2), 1 uM drug
# [6] = OE2 (RAMS11 overexpression clone 2), 10 uM drug
Structure (SMILES),Viability Fold Change [1],Viability Fold Change [2],Viability Fold Change [3],Viability Fold Change [4],Viability Fold Change [5],Viability Fold Change [6]
C=C1C[C@@H]2[C@H](CC[C@]3(C)C(=O)CC[C@@H]23)[C@@]2(C)C=CC(=O)C=C12 [Exemestane],0.8651,0.981,0.9176,1.047,1.008,1.06
Nc1nc(F)nc2c1ncn2[C@@H]1O[C@H](CO)[C@@H](O)[C@@H]1O [Fludarabine],0.869,0.9921,1.056,0.973,1.069,1.073
C[C@]12CC[C@@H]3c4ccc(O)cc4C[C@@H](CCCCCCCCC[S+]([O-])CCCC(F)(F)C(F)(F)F)[C@H]3[C@@H]1CC[C@@H]2O (stereo partly drawn) [Fulvestrant],1.048,1.037,1.135,1.088,1.089,1.036
COc1cc2ncnc(Nc3ccc(F)c(Cl)c3)c2cc1OCCCN1CCOCC1 [Gefitinib],0.9453,1.164,1.468,0.9436,1.227,1.392
NC(=O)NO [Hydroxyurea],0.9496,0.9632,0.9723,0.9871,1.074,0.9675
CC(=O)[C@]1(O)Cc2c(O)c3c(c(O)c2[C@@H](O[C@H]2C[C@H](N)[C@H](O)[C@H](C)O2)C1)C(=O)c1ccccc1C3=O [Idarubicin hydrochloride],1.365,1.73,3.603,1.573,1.623,3.696
CC[C@H](Nc1ncnc2[nH]cnc12)c1nc2cccc(F)c2c(=O)n1-c1ccccc1 [Idelalisib],0.9092,0.8875,0.9111,0.9773,0.8852,0.8746
O=P1(NCCCl)OCCCN1CCCl (stereo not drawn) [Ifosfamide],0.9167,1.025,0.9724,0.9226,1.055,1.058
CC(C)Cn1cnc2c(N)nc3ccccc3c21 [Imiquimod],1.048,1.101,1.03,1.037,1.138,0.9752
CCc1c2c(nc3ccc(OC(=O)N4CCC(N5CCCCC5)CC4)cc13)-c1cc3c(c(=O)n1C2)COC(=O)[C@]3(O)CC [Irinotecan HCl],0.9198,0.9608,1.151,0.9682,0.9711,1.068
C/C(=C\c1csc(C)n1)[C@@H]1C[C@@H]2O[C@]2(C)CCC[C@H](C)[C@H](O)[C@@H](C)C(=O)C(C)(C)[C@@H](O)CC(=O)N1 [Ixabepilone],1.657,1.943,1.722,1.773,2.017,2.056
CS(=O)(=O)CCNCc1ccc(-c2ccc3ncnc(Nc4ccc(OCc5cccc(F)c5)c(Cl)c4)c3c2)o1 [Lapatinib],1.034,1.269,1.357,1.216,1.285,1.391
Nc1cccc2c1CN(C1CCC(=O)NC1=O)C2=O (stereo not drawn) [Lenalidomide],0.9659,1.021,0.9664,0.9115,1.009,0.8902
N#Cc1ccc(C(c2ccc(C#N)cc2)n2cncn2)cc1 [Letrozole],0.9923,0.9536,0.9791,0.9454,1.057,0.8412
O=NN(CCCl)C(=O)NC1CCCCC1 [Lomustine],0.9969,1.03,1.027,0.991,1.111,0.9646
CC(=O)O[C@]1(C(C)=O)CC[C@H]2[C@@H]3C=C(C)C4=CC(=O)CC[C@]4(C)[C@H]3CC[C@@]21C [Megestrol acetate],0.8922,1.034,0.9961,0.8949,0.9578,0.9016
N[C@@H](Cc1ccc(N(CCCl)CCCl)cc1)C(=O)O [Melphalan],0.9214,1.006,0.9782,0.9479,1.068,0.9942
S=c1nc[nH]c2nc[nH]c12 [Mercaptopurine],0.964,0.9982,1.006,0.9412,1.029,1.05
CN(Cc1cnc2nc(N)nc(N)c2n1)c1ccc(C(=O)N[C@@H](CCC(=O)O)C(=O)O)cc1 [Methotrexate],0.9199,0.5578,1.197,0.9143,0.5752,1.137
COc1c2occc2cc2ccc(=O)oc12 [Methoxsalen],0.9521,0.971,0.7883,0.8888,0.9485,0.9406
CO[C@@]12[C@H](COC(N)=O)C3=C(C(=O)C(C)=C(N)C3=O)N1C[C@@H]1N[C@@H]12 [Mitomycin],0.9668,1.547,2.416,1.006,1.624,2.004
Clc1ccc(C(c2ccccc2Cl)C(Cl)Cl)cc1 (stereo not drawn) [Mitotane],0.8185,0.9667,0.9105,0.9482,0.9714,0.987
O=C1c2c(O)ccc(O)c2C(=O)c2c(NCCNCCO)ccc(NCCNCCO)c21 [Mitoxantrone],1.145,1.451,1.375,1.105,1.432,1.508
COc1nc(N)nc2c1ncn2[C@@H]1O[C@H](CO)[C@@H](O)[C@@H]1O [Nelarabine],0.9819,1.033,0.9555,0.9462,1.007,0.9701
Cc1cn(-c2cc(NC(=O)c3ccc(C)c(Nc4nccc(-c5cccnc5)n4)c3)cc(C(F)(F)F)c2)cn1 [Nilotinib],0.8679,0.749,0.7379,1.013,0.888,0.7462
O=C(c1cc(Cc2n[nH]c(=O)c3ccccc23)ccc1F)N1CCN(C(=O)C2CC2)CC1 [Olaparib],0.8162,0.9061,1,0.9035,0.952,0.9733
COC(=O)C[C@](O)(CCCC(C)(C)O)C(=O)O[C@@H]1C(OC)=C[C@]23CCCN2CCc2cc4c(cc2[C@H]13)OCO4 [Omacetaxine mepesuccinate],1.354,1.614,1.606,1.376,1.468,1.436
CC(=O)O[C@H]1C(=O)[C@@]2(C)[C@H]([C@H](OC(=O)c3ccccc3)[C@]3(O)C[C@H](OC(=O)[C@H](O)[C@@H](NC(=O)c4ccccc4)c4ccccc4)C(C)=C1C3(C)C)[C@]1(OC(C)=O)CO[C@@H]1C[C@@H]2O [Paclitaxel],2.775,3.5,3.241,2.662,3.065,3.061
Cc1ccc(Nc2nccc(N(C)c3ccc4c(C)n(C)nc4c3)n2)cc1S(N)(=O)=O [Pazopanib hydrochloride],0.8743,0.7793,0.8633,0.9409,0.9056,0.9152
Nc1nc2[nH]cc(CCc3ccc(C(=O)N[C@@H](CCC(=O)O)C(=O)O)cc3)c2c(=O)[nH]1 [Pemetrexed disodium salt],0.9118,0.9424,1.886,0.9953,0.9455,1.933

# Source: patent US12024707B2, “Methods and compositions for modulating lncRNAs and methods of treatment based on lncRNA expression” (Washington University, priority 2020, dated 2024)
